Measurements taken from US20080255111A1, “Tissue Factor Production Inhibitor” (SANKYO COMPANY LIMITED, priority 2004, published 2008).

Tested on: tissue factor mRNA in LPS-stimulated mouse peritoneal macrophages
Experiment: Assay of mouse peritoneal macrophage tissue factor mRNA
Assay type: cell-based
Conditions: test compound 1 μM, 18 h, then LPS 100 ng/ml for 6 h, relative to cyclophilin mRNA, DMSO treatment = 100, read-out: Expressed Amount of Tissue Factor mRNA
Procedure: 3 ml of thioglycolate (Sigma Chemical) were administered into the abdominal cavity of male C57BL/6J mice (Charles River) followed 4 days later by intraperitoneal administration of 10 ml of phosphate-buffered saline (hereinafter PBS) containing heparin (Hishiyama Pharmaceutical) at a concentration of 5 U/ml and recovery of intraperitoneal macrophages using a syringe. After centrifuging the recovered macrophages at 1000 rpm and 4° C. for 5 minutes, the supernatant was discarded followed by suspending in RPMI 1640 medium (Gibco Laboratories) containing normal fetal bovine serum (hereinafter FBS) at a concentration of 10%. The macrophages were adjusted to a concentration of 4×10^6 cells/ml, disseminated in 1 ml aliquots in a 12-well plate, and cultured for 3 hours at 37° C. using a CO2 incubator. Subsequently, the cells were washed with PBS, and the medium was replaced with RPMI medium containing lipoprotein-deficient serum (hereinafter LPDS) (Sigma Chemical) at a concentration of 5%. Test compounds dissolved in dimethylsulfoxide (DMSO) at a concentration of 1 μM were added to make a final DMSO concentration of 0.1%, and after warming for 18 hours at 37° C., lipopolysaccharide (hereinafter LPS) (Sigma Chemical) was added to make a concentration of 100 ng/ml. The cells were recovered 6 hours later, RNA was extracted using the Rneasy Mini Kit (Qiagen), and after carrying out a reverse transcription reaction using the First-Strand cDNA Synthesis Kit (Amersham Biosciences), the expressed amounts of tissue factor mRNA and cyclophylin mRNA were measured by quantitative RT-PCR (TaqMan, Applied Biosystems 7700 Sequence Detector).
Quantitative RT-PCR for tissue factor was carried out using the aforementioned TF-1 and TF-2 as primers and TF-P as probes, while quantitative PCR for cyclophilin was carried out using the aforementioned Cyl-1 and Cyl-2 as primers and Cyl-P as probes. Both were carried out by warming for 2 minutes at 50° C. and then for 10 minutes at 95° C., followed by 40 warming cycles consisting of warming for 15 seconds at 95° C. and then for 1 minute at 60° C. The expressed amount of tissue factor mRNA was calculated as a relative value of the expressed amount of cyclophilin mRNA. The expressed amounts of tissue factor mRNA resulting from the test compounds at a concentration of 1 μM or 10 μM based on a value of 100 for the expressed amount of tissue factor mRNA in a case of treatment with DMSO at a concentration of […] are shown in Table 7.

Structure (SMILES)	mrna remaining at 1 µM
O=c1c2cc(-c3ccccn3)ccc2nc(Cc2ccccc2)n1-c1ccc(C(O)(C(F)(F)F)C(F)(F)F)cc1 [Compound F, 2-Benzyl-6-(2-pyridyl)-3-[4-[2,2,2-trifluoro-1-hydroxy-1-(trifluoromethyl)ethyl]phenyl]-4(3H)-quinazolinone]	76.9%
CC(C)(C)OC(=O)c1c(COc2ccc(-c3ccc(CC(=O)O)cc3Cl)cc2)ccc(C(F)(F)F)c1O [Reference Example 26, (4′-{[2-(tert-Butoxycarbonyl)-3-hydroxy-4-(trifluoromethyl)benzyl]oxy}-2-chloro-1,1′-biphenyl-4-yl)acetic acid]	42.3%
CC(C)(C)OC(=O)c1c(COc2ccc(-c3ccc(CC(=O)O)cc3C(F)(F)F)cc2)ccc(C(F)(F)F)c1O [Reference Example 27, (4′-{[2-(tert-Butoxycarbonyl)-3-hydroxy-4-(trifluoromethyl)benzyl]oxy}-2-trifluoromethyl-1,1′-biphenyl-4-yl)acetic acid]	63.5%
CCc1cc(CC(=O)O)ccc1-c1ccc(OCc2ccc(C(F)(F)F)c(O)c2C(=O)OC(C)(C)C)cc1 [Reference Example 15, (4′-{[2-(tert-Butoxycarbonyl)-3-hydroxy-4-(trifluoromethyl)benzyl]oxy}-2-ethyl-1,1′-biphenyl-4-yl)acetic acid]	55.5%
CN(c1ccc(OCc2ccc(C(F)(F)F)c(O)c2C(=O)OC(C)(C)C)cc1)S(C)(=O)=O [Reference Example 6, tert-Butyl 2-hydroxy-6-({4-[methyl(methylsulfonyl)amino]phenoxy}methyl)-3-(trifluoromethyl)benzoate]	62.8%
CN(C(=S)C1CC1)c1ccc(OCc2cc3c(F)cc(F)cc3n2C(=O)OC(C)(C)C)cc1 [Reference Example 4, tert-Butyl 2-({4-[(cyclopropylcarbonothioyl)(methyl)amino]phenoxy}methyl)-4,6-difluoro-1H-indole-1-carboxylate]	57.6%
Cc1c(CC(=O)O)cccc1-c1ccc(OCc2ccc(C(F)(F)F)c(O)c2C(=O)OC(C)(C)C)cc1 [Reference Example 16, (4′-{[2-(tert-Butoxycarbonyl)-3-hydroxy-4-(trifluoromethyl)benzyl]oxy}-2-methyl-1,1′-biphenyl-3-yl)acetic acid]	65.4%
CC(C)(C)OC(=O)c1c(COc2ccc(-c3ccc(CC(=O)O)cc3[N+](=O)[O-])cc2)ccc(C(F)(F)F)c1O [Reference Example 22, (4′-{[2-(tert-Butoxycarbonyl)-3-hydroxy-4-(trifluoromethyl)benzyl]oxy}-2-nitro-1,1′-biphenyl-4-yl)acetic acid]	54%
CC(=O)N(C)c1ccc(OCc2cc3ccc(F)cc3n2C(=O)OC(C)(C)C)cc1 [Reference Example 3, tert-Butyl 2-({4-[acetyl(methyl)amino]phenoxy}methyl)-6-fluoro-1H-indole-1-carboxylate]	67.9%
CC(C)(C)OC(=O)c1c(COc2ccc(-c3ccc(CC(=O)O)c(Cl)c3)cc2)ccc(C(F)(F)F)c1O [Reference Example 14, (4′-{[2-(tert-Butoxycarbonyl)-3-hydroxy-4-(trifluoromethyl)benzyl]oxy}-3-chloro-1,1′-biphenyl-4-yl)acetic acid]	61.2%
O=S(=O)(c1ccccc1)N(CC(F)(F)F)c1ccc(C(O)(C(F)(F)F)C(F)(F)F)cc1 [Compound A, N-(2,2,2-Trifluoroethyl)-N-{4-[2,2,2-trifluoro-1-hydroxy-1-(trifluoromethyl)ethyl]phenyl}benzenesulfonamide, reference compound]	20%
Cc1cc(C(O)(C(F)(F)F)C(F)(F)F)ccc1-n1c(Cc2cccnc2)nc2ccc(-n3cncn3)cc2c1=O [Compound I, 3-{2-Methyl-4-[2,2,2-trifluoro-1-hydroxy-1-(trifluoromethyl)ethyl]phenyl}-2-(3-pyridylmethyl)-6-(1H-1,2,4-triazol-1-yl)-4(3H)-quinazolinone]	48.6%
Cc1cc(CC(=O)O)ccc1-c1ccc(OCc2ccc(C(F)(F)F)c(O)c2C(=O)OC(C)(C)C)cc1 [Reference Example 24, (4′-{[2-(tert-Butoxycarbonyl)-3-hydroxy-4-(trifluoromethyl)benzyl]oxy}-2-methyl-1,1′-biphenyl-4-yl)acetic acid]	61.8%
CC(C)(C)OC(=O)n1c(COc2ccc(-c3ccc(CC(=O)O)cc3Cl)cc2)cc2ccc(F)cc21 [Reference Example 12, (4′-{[1-(tert-Butoxycarbonyl)-6-fluoro-1H-indol-2-yl]methoxy}-2-chloro-1,1′-biphenyl-4-yl)acetic acid]	54.3%
CC(C)(C)OC(=O)c1c(COc2ccc(-c3ccc(CC(=O)O)cc3)cc2)ccc(C(F)(F)F)c1O [Reference Example 13, (4′-{[2-(tert-Butoxycarbonyl)-3-hydroxy-4-(trifluoromethyl)benzyl]oxy}-1,1′-biphenyl-4-yl)acetic acid]	65.4%
CC(C)(C)OC(=O)c1c(COc2ccc(-c3ccc(CC(=O)O)cc3N)cc2)ccc(C(F)(F)F)c1O [Reference Example 30, (2-Amino-4′-{[2-(tert-butoxycarbonyl)-3-hydroxy-4-(trifluoromethyl)benzyl]oxy}-1,1′-biphenyl-4-yl)acetic acid]	65.6%

Same assay, conditions: test compound 10 μM, 18 h, then LPS 100 ng/ml for 6 h, relative to cyclophilin mRNA, DMSO treatment = 100, read-out: Expressed Amount of Tissue Factor mRNA

Structure (SMILES)	mrna remaining at 10 µM
Cc1ccc(Cc2nc3ccc(-n4ccnc4)cc3c(=O)n2-c2ccc(C(O)(C(F)(F)F)C(F)(F)F)cc2C)cc1 [Compound G, 6-(1H-Imidazol-1-yl)-2-(4-methylbenzyl)-3-{2-methyl-4-[2,2,2-trifluoro-1-hydroxy-1-(trifluoromethyl)ethyl]phenyl}-4(3H)-quinazolinone]	44.7%
CC(C)(C)OC(=O)c1c(COc2ccc(-c3ccc(C(=O)O)cc3)cc2)ccc(C(F)(F)F)c1O [Reference Example 34, 4′-{[2-(tert-Butoxycarbonyl)-3-hydroxy-4-(trifluoromethyl)benzyl]oxy}-1,1′-biphenyl-4-carboxylic acid]	39%
CC(C)(C)OC(=O)c1c(COc2ccc(-c3ccc(CC(=O)O)cc3)cc2)ccc(Cl)c1O [Reference Example 20, (4′-{[2-(tert-Butoxycarbonyl)-4-chloro-3-hydroxybenzyl]oxy}-1,1′-biphenyl-4-yl)acetic acid]	58.1%
COc1cc2nc(Cc3cccc(F)c3)n(-c3cc(C(O)(C(F)(F)F)C(F)(F)F)ccc3C)c(=O)c2cc1OC [Reference Example 2, 2-(3-Fluorobenzyl)-6,7-dimethoxy-3-{2-methyl-5-[2,2,2-trifluoro-1-hydroxy-1-(trifluoromethyl)ethyl]phenyl}-4(3H)-quinazolinone]	45.2%
CC(C)(C)OC(=O)c1c(COc2ccc(-c3ccc(C4(C(=O)O)CC4)cc3)cc2)ccc(C(F)(F)F)c1O [Reference Example 28, 1-(4′-{[2-(tert-Butoxycarbonyl)-3-hydroxy-4-(trifluoromethyl)benzyl]oxy}-1,1′-biphenyl-4-yl)cyclopropanecarboxylic acid]	41.7%
CN(C)c1cc(CC(=O)O)ccc1-c1ccc(OCc2ccc(C(F)(F)F)c(O)c2C(=O)OC(C)(C)C)cc1 [Reference Example 31, [4′-{[2-(tert-Butoxycarbonyl)-3-hydroxy-4-(trifluoromethyl)benzyl]oxy}-2-(dimethylamino)-1,1′-biphenyl-4-yl]acetic acid]	33.7%
